For experiment [1], the target named is T1, cGAMP binding domain of wild-type (GRR) human STING, residues 155-341 (Homo sapiens, UniProt Q86WV6, H232R).
T1 construct: His-TEV-hSTING (WT); TEV protease cleavage site (N); made in house; host or cells: E. coli BL21 DE3
The experiment can be described thus: Increase of stability of STING protein against thermal denaturation, Differential Scanning Fluorimetry (DSF). Here is the method:
Dye fluorescence is quenched in aqueous environment and increases upon association of the dye with the hydrophobic parts of the unfolding protein. […] The inflection point of the curve represents the “melting” temperature of the protein (Tm) which is calculated numerically using the Boltzmann equation.
Method: The thermal stability of the STING protein was measured using a specific expression construct of the cGAMP binding domain of wild-type (GRR) human STING comprising residues 155-341 and a N-terminal 8×His-tag (SEQ ID NO: 3) in assay buffer containing 20 mM Tris, 150 mM NaCl at pH7.5.
The assay uses Hard-Shell® PCR Plates 384-Well CLR/WHT (Catalog #HSP3805, BIO-RAD), Microseal® ‘B’ Adhesive Seals for PCR Plates (Catalog #MSB-1001, BIO-RAD) and was run on a CFX384 Real-Time System (Bio-Rad).
A DMSO stock solution of SYPRO orange (SIGMA S5692-500UL) was prepared.
Compound stock solutions (10 mM in DMSO) were diluted 1:2 in DMSO to an intermediate compound concentration of 5 mM and then further diluted 1:40 in assay buffer resulting in a compound concentration of 125 μM and 2.5% DMSO.
Fluorescent dye stock solution (5000×SYPRO Orange) was then mixed with target protein and buffer to a concentration of 15 uM Protein and 25×SYPRO Orange. 2 ul of this protein-dye-mixture was added to 8 ul compound solution. Final volume was 10 uL. 3-6 well positions were used as negative control (protein with 2% DMSO). The plates were prepared for duplicate measurement and centrifuged for 2 min at 1000 g. In the measurement, 160 cycles of 0.5° C. were used (temperature ramp 15 s/cycle, 15° C. to 95° C.).
Final Assay concentrations for compound characterization were as follows: 100 uM compound, 3 uM target protein, 5×SYPRO Orange, 2% DMSO in 10 ul. All dispensing steps were performed using a HamiltonStar pipetting robot (Hamilton).
Dissociation curves were processed in Bio-Rad CFX Manager. Peak type was set to “negative”. Compound codes for screen were assigned in the plate layout.
Two replicates of TM measurements were averaged, and the standard deviation was calculated. In cases of SD>1.5° C. the measurement was repeated.
The melting point (Tm) obtained for STING protein alone was subtracted from T obtained for protein incubated with ligand to generate ΔTm values.
Protein production and purification: The protein used for the biophysical experiments was a recombinant human STING protein comprising its cytosolic ectodomain. A codon optimized DNA sequence (for expression in Escherichia coli) encoding amino acid residues 155 to 341 (Swiss Prot Q86WV6) of human STING (WT) was synthesized by GeneArt (Regensburg, Germany) and inserted into a pET17b E. coli expression vector. The protein construct encodes an N-terminal 8×His-tag (SEQ ID NO: 3) followed by tobacco etch virus protease (TEV) cleavage site and the above STING gene sequence. The resulting protein sequence for the used STING variant is listed below:
For expression of recombinant human STING above construct was transformed into E. coli BL21 DE3 strain and grown in shake flasks in LB-medium at 37° C. Expression was induced by addition of isopropyl β-D-1-thiogalactopyranoside to a final concentration of 1 mM and cultures shaken overnight. Cell pellets were centrifuged and stored at −70° C. until further use. Protein was purified by cell thawing in lysis buffer (20 mM TRIS-HCl, pH 8, 300 mM NaCl, 2 mM mercaptoethanol, 20 mM imidazole, Complete Protease Inhibitor (Roche) and DNase (Roche)), followed by metal affinity purification using Ni-NTA resins and elution buffer consisting of 20 mM TRIS-HCl, pH 8, 300 mM NaCl, 2 mM mercaptoethanol, 300 mM imidazole and size exclusion chromatography in running buffer (20 mM TRIS-HCl, pH 8, 100 mM NaCl, 2 mM DTT). The peak fraction was collected and concentrated to 2.5 mg/mL.

Experiment [2] concerns STING inhibition in human whole blood (IFNα2α production). Briefly: Human whole blood assay (HWBA): cGAMP-stimulated IFNα2α production. The format is cell-based. As to conditions: Homo sapiens. The protocol: For the detection of STING inhibition in physiological environment human whole blood was stimulated by the cyclic dinucleotide cGAMP. Pathway activity was monitored by measuring the IFNα2α production.
Assay method: Compounds were delivered as 10 mM DMSO solution and serial diluted and transferred to the 96-well Cell culture Plate (Corning #3595), prefilled with 20 μl OptiMEM (Gibco #11058-021) in each well, using an Echo acoustic dispenser. Typically, 8 concentrations were used with the highest concentration at 10 μM in the final assay volume followed by ~1:5 dilution steps. DMSO concentration was set to 0.1% in the final assay volume. The 96 well assay plate contained 9 test compounds, a reference compound and DMSO in control wells.
Collection of human whole blood from 3 or more healthy donors (male or female, no medication for 7 days, exception contraceptive and thyroxine) as Na-citrate blood (e.g. 3.8% in Monovettes from Sarstedt) is conducted in parallel. Whole blood was kept at room temperature for a maximum of 3 hours after collection until use in the assay.
160 μl of the whole blood samples were transferred to each well of the 96-well assay plates filled with compound/OptiMEM. All assay plates are prepared as duplicates with blood from different donors. Blood plates were kept at room temperature for 60 minutes and continuous shaking with 450 rpm, covered with the lid, but not sealed.
A 10× cGAMP assay solution was diluted from a 2 mM stock solution in 1×HBSS immediately before use at room temperature. 20 μl of the 10× cGAMP/HBSS were added to all compound and all high control wells, whereas HBSS only was added to all low control wells.
After covering assay plates with aera seals and the lid, blood plates were kept at room temperature for 30 minutes and continuous shaking with 450 rpm, followed by an overnight incubation of 22 h at 37° C. in the incubator, without shaking.
For the detection of IFNα-2α in human plasma, the biotinylated capture antibody (Antibody set IFNA2, Meso Scale Diagnostics #B21VH-3, including coating and capture antibody) was diluted 1:17.5 in Diluent 100 (Meso Scale Diagnostics #R50AA-4, according to the manufacturer. U-Plex MSD GOLD 96-well Small Spot Streptavidin SECTOR Plates (Meso Scale Diagnostics #L45SA-5) were coated with 25 μl diluted capture antibody. Coated plates were incubated for 60 min at room temperature under continuous shaking at 700 rpm. MSD IFNα-2α plates were washed three times with 150 μl wash buffer (1×HBSS, 0.05% Tween).
After blocking the plates with 100 μl block solution/well (1×HBSS with 0.2% Tween, 2% BSA) for 60 min at room temperature and continuous shaking at 700 rpm, plates were emptied as dry as possible by dumping just before continuing with the human plasma. Whole Blood assay plates were centrifuged at 1600 rpm for 10 minutes. 25 μl of supernatant was transferred with a pipetting robotics from each whole blood plate to the corresponding IFNα-2α plate. Plates were sealed with microplate seals and kept at room temperature again under continuous shaking at 700 rpm for two hours. Next MSD IFNα-2α plates were washed three times with 150 μl wash buffer (1×HBSS, 0.05% Tween), before adding 25 μl MSD SULFO-TAG IFNα-2α Antibody solution (1:100 diluted in Diluent 3 (Meso Scale Diagnostics #R50AP-2) to each well of the plates. Afterwards plates were sealed with microplate seals and kept at room temperature again under continuous shaking at 700 rpm for two hours. Finally MSD IFNα-2α plates were washed three times with 150 μl wash buffer (1×HBSS, 0.05% Tween). 150 μl 2×Read buffer was added to each well and plates were immediately measured with the MSD Sector S600 Reader using the vendor barcode.
Data evaluation and calculation: For data evaluation and calculation, % control calculation of each well was based on the mean of high (cGAMP stimulated control) and mean of low (unstimulated control) controls by using the following formula: […]

The subject of the next experiment is STING. The note with it: in vitro and in BLM-induced SSc mice; cited from earlier work.

We go through 12 compounds from patent US20260265244A1, “HETEROCYCLIC COMPOUNDS AS STING ANTAGONISTS” (Boehringer Ingelheim International GmbH, priority 2022, published 2026).

T1 sequence (Q86WV6 with tags, fused parts or gaps H232R): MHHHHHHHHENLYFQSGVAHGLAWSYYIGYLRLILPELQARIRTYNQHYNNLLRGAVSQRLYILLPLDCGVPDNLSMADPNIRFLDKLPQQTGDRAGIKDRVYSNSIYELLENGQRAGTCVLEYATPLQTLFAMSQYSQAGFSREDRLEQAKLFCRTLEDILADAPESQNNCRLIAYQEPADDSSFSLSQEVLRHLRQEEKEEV

For `COCCc1nc2nn(C)cc2cc1-n1nc(-c2cccc3nn(C[C@H](O)c4ccccc4)cc23)c(C(C)C)c1C` [Example 38, (1R)-2-(4-{1-[6-(2-methoxyethyl)-2-methyl-2H-pyrazolo[3,4-b]pyridin-5-yl]-5-methyl-4-(propan-2-yl)-1H-pyrazol-3-yl}-2H-indazol-2-yl)-1-phenylethan-1-ol], the DSF in experiment [1] stood at 26 K. Moreover, the IC50 in experiment [2] is 130 nM. Turning to `Cc1nc2nn(CCC#N)cc2cc1-n1nc(-c2cccc3nn(C[C@H](O)c4ccccc4)cc23)c(C(C)C)c1C` [Example 99], in experiment [1], the DSF is listed as 29 K. The IC50 in experiment [2] turned out to be 35 nM. The compound `Cn1cc2cc(-c3nc(-c4cccc5nn(C[C@H](O)c6ccc(OCc7ccccc7)cc6)cc45)c(C4CC4)n3C)c(C3CC3)nc2n1` [Example 4, (1R)-1-[4-(benzyloxy)phenyl]-2-[4-(5-cyclopropyl-2-{6-cyclopropyl-2-methyl-2H-pyrazolo[3,4-b]pyridin-5-yl}-1-methyl-1H-imidazol-4-yl)-2H-indazol-2-yl]ethan-1-ol] came in with a DSF in experiment [1] of 27 K. Besides, the IC50 in experiment [2] was found to be 800 nM. In turn, `Cn1c(-c2cc3cn(CCCN4CCOCC4)nc3nc2C2CC2)nc(-c2cccc3nn(C[C@H](O)c4ccccc4)cc23)c1C1CC1` [Example 11, (1R)-2-[4-(5-cyclopropyl-2-{6-cyclopropyl-2-[3-(morpholin-4-yl)propyl]-2H-pyrazolo[3,4-b]pyridin-5-yl}-1-methyl-1H-imidazol-4-yl)-2H-indazol-2-yl]-1-phenylethan-1-ol] displayed a DSF in experiment [1] of 30 K. Moreover, in experiment [2], the IC50 stood at 70 nM.

In experiment [2], `Cc1nc2nn(CCCN(C)C)cc2cc1-n1nc(-c2cccc3nn(C[C@H](O)c4ccccc4)cc23)c(C(C)C)c1C` [Example 43, (1R)-2-[4-(1-{2-[3-(dimethylamino)propyl]-6-methyl-2H-pyrazolo[3,4-b]pyridin-5-yl}-5-methyl-4-(propan-2-yl)-1H-pyrazol-3-yl)-2H-indazol-2-yl]-1-phenylethan-1-ol] came in with an IC50 of 140 nM. As for `C=Cn1cc2cc(-c3nc(-c4cccc5nn(C[C@H](O)c6ccccc6)cc45)c(C4CC4)n3C)c(C3CC3)nc2n1` [Example 61, (1R)-2-[4-(5-cyclopropyl-2-{6-cyclopropyl-2-ethenyl-2H-pyrazolo[3,4-b]pyridin-5-yl}-1-methyl-1H-imidazol-4-yl)-2H-indazol-2-yl]-1-phenylethan-1-ol], the DSF in experiment [1] came to 30 K. This compound also registered an IC50 in experiment [2] of 270 nM. `Cc1nc2nn(CC3COCCO3)cc2cc1-n1nc(-c2cccc3nn(C[C@H](O)c4ccccc4)cc23)c(C(C)C)c1C` (stereo partly drawn) [Example 31, (1R)-2-[4-(1-{2-[(1,4-dioxan-2-yl)methyl]-6-methyl-2H-pyrazolo[3,4-b]pyridin-5-yl}-5-methyl-4-(propan-2-yl)-1H-pyrazol-3-yl)-2H-indazol-2-yl]-1-phenylethan-1-ol]: in experiment [1], the DSF is given as 27 K. Further, it took 110 nM to reach half-maximal inhibition in experiment [2] (IC50). In turn, `Cc1nc2nn(CP(C)(C)=O)cc2cc1-n1nc(-c2cccc3nn(C[C@H](O)c4ccccc4)cc23)c(C(C)C)c1C` [Example 77, (1R)-2-[4-(1-{2-[(dimethylphosphoryl)methyl]-6-methyl-2H-pyrazolo[3,4-b]pyridin-5-yl}-5-methyl-4-(propan-2-yl)-1H-pyrazol-3-yl)-2H-indazol-2-yl]-1-phenylethan-1-ol] had a DSF in experiment [1] of 27 K. In experiment [2], this compound returned an IC50 of 550 nM. `CCOc1nc2nn(C)cc2cc1-n1nc(-c2cccc3nn(C[C@H](O)c4ccccc4)cc23)c(C(C)C)c1C` [Example 5, (1R)-2-[4-(1-{6-ethoxy-2-methyl-2H-pyrazolo[3,4-b]pyridin-5-yl}-5-methyl-4-(propan-2-yl)-1H-pyrazol-3-yl)-2H-indazol-2-yl]-1-phenylethan-1-ol]: 61 nM corresponded to half-maximal inhibition in experiment [2] (IC50). For the compound `CCc1ccc(NC(=O)Nc2c[nH]c3ccccc23)cc1` [Example H151], in the experiment on STING, the fibrosis and vasculopathy result was “ameliorated fibrosis and vasculopathy”. Consider `COc1nc2nn(C)cc2cc1-n1nc(-c2cccc3nn(C[C@H](O)c4ccccc4)cc23)c(C(C)C)c1C` [Example 59, (1R)-2-[4-(1-{6-methoxy-2-methyl-2H-pyrazolo[3,4-b]pyridin-5-yl}-5-methyl-4-(propan-2-yl)-1H-pyrazol-3-yl)-2H-indazol-2-yl]-1-phenylethan-1-ol], for which, in experiment [1], the DSF was found to be 27 K. Further, in experiment [2], the IC50 was 240 nM.

The compound `Cc1c(C(C)C)c(-c2cccc3nn(C[C@H](O)c4ccccc4)cc23)nn1-c1cc2cn(C)nc2nc1OCCO` [Example 71, 2-{[5-(3-{2-[(2R)-2-hydroxy-2-phenylethyl]-2H-indazol-4-yl}-5-methyl-4-(propan-2-yl)-1H-pyrazol-1-yl)-2-methyl-2H-pyrazolo[3,4-b]pyridin-6-yl]oxy}ethan-1-ol] yielded a DSF in experiment [1] of 26 K. In experiment [2], this compound showed an IC50 of 370 nM.

As a reminder, the IC50 is the concentration needed to halve the response being measured.
